Our source for the IC50 values is patent publication US6683103B2, “Sulfonamides for treatment of endothelin-mediated disorders” (Texas Biotechnology Corporation, priority 1997, dated 2004).

SMILES strings stand for the structures. Where two headings read alike, the source gives them in different places.

For one assay, the target named is T1, human ETA receptors (Homo sapiens, UniProt P25101).
T1 construct: endogenous in cells; host or cells: TE 671 cells (ATCC HTB 139)
T1 sequence (P25101 21-427): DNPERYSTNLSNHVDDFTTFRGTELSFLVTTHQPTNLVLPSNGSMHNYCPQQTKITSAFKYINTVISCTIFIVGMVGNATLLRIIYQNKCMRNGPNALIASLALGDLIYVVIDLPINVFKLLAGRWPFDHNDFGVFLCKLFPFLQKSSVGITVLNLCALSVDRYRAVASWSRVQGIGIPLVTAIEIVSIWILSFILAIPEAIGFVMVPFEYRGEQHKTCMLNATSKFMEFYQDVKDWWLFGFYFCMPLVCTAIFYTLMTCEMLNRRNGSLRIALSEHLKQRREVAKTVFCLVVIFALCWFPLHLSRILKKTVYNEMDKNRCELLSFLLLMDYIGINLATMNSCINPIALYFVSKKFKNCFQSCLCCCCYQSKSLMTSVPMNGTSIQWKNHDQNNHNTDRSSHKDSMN
Description: Binding Test #1: inhibition of 125I-ET-1 binding to ETA receptors (TE 671 cell membranes). The conditions noted are these: read-out: ETA. The source says: (§1) Compounds that are potential endothelin antagonists are identified by testing their ability to compete with ^125I-labeled ET-1 for binding to human ETA receptors or ETB receptors present on isolated cell membranes. The effectiveness of the test compound as an antagonist or agonist of the biological tissue response of endothelin can also be assessed by measuring the effect on endothelin induced contraction of isolated rat thoracic aortic rings. The ability of the compounds to act as antagonists or agonists for ETB receptors can be assess by testing the ability of the compounds are to inhibit endothelin-1 induced prostacyclin release from cultured bovine aortic endothelial cells.
A. Endothelin Binding Inhibition—Binding Test #1: Inhibition of Binding to ETA Receptors
TE 671 cells (ATCC Accession No. HTB 139) express ETA receptors. These cells were grown to confluence in T-175 flasks. Cells from multiple flasks were collected by scraping, pooled and centrifuged for 10 min at 190×g. The cells were resuspended in phosphate buffered saline (PBS) containing 10 mM EDTA using a Tenbroeck homogenizer. The suspension was centrifuged at 4° C. at 57,800×g for 15 min, the pellet was resuspended in 5 ml of buffer A (5 mM HEPES buffer, pH 7.4 containing aprotinin (100 KIU/ml)) and then frozen and thawed once. 5 ml of Buffer B (5 mM HEPES Buffer, pH 7.4 containing 10 mM MnCl2 and 0.001% deoxyribonuclease Type 1) was added, the suspension mixed by inversion and then incubated at 37° C. for 30 minutes. The mixture was centrifuged at 57,800×g as described above, the pellet washed twice with buffer A and then resuspended in buffer C (30 mM HEPES buffer, pH 7.4 containing aprotinin (100 KIU/ml) to give a final protein concentration of 2 mg/ml and stored at −70° C. until use.
The membrane suspension was diluted with binding buffer (30 mM HEPES buffer, pH 7.4 containing 150 mM NaCl, 5mM MgCl2, 0.5% Bacitracin) to a concentration of 8 μg/50 μl. ^125I-endothelin-1 (3,000 cpm, […]) was added to 50 μL of either: (A) endothelin-1 (for non specific binding) to give a final concentration 80 nM); (B) binding buffer (for total binding); or (C) a test compound (final concentration 1 nM to 100 μM). The membrane suspension (50 μL), containing up to 8 μg of membrane protein, was added to each of (A), (B), or (C). Mixtures were shaken, and incubated at 4° C. for 16-18 hours, and then centrifuged at […] for 25 min at 2,500×g. Alternatively, the incubation was conducted at 24° C. […] This, must be kept in mind when comparing IC50 concentrations among compounds provided herein.
The supernatant, containing unbound radioactivity, was decanted and the pellet counted on a Genesys multiwell gamma counter. The degree of inhibition of binding (D) was calculated according to the following equation: [formula]
Each test was generally performed in triplicate.

The next assay has as its target T2, human ETB receptor (Homo sapiens, UniProt P24530).
T2 construct: expressed in transfected cells; host or cells: COS7 cells
T2 sequence (P24530 27-442): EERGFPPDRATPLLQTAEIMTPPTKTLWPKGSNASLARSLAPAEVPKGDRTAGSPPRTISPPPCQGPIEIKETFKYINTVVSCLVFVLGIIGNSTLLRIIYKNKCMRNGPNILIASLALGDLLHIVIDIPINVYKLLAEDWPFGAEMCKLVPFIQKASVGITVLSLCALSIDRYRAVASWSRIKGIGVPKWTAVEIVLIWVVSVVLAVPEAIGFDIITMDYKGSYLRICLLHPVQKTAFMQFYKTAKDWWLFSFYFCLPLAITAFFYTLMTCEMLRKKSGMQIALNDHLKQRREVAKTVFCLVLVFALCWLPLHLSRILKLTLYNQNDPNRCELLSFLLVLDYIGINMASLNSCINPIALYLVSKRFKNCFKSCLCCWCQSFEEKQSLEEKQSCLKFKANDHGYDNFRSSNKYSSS
Put plainly: Binding Test #2: inhibition of 125I-ET-1 binding to ETB receptors (transfected COS7 cell membranes). The conditions noted are these: read-out: ETB.
Excerpt: as §1
B. Endothelin Binding Inhibition—Binding Test #2: Inhibition of Binding to ETB Receptors
COS7 cells were transfected with DNA encoding the ETB receptor, The resulting cells, which express the human ETB receptor, were grown to confluence in T-150 flasks. Membrane was prepared as described above. The binding assay was performed as described above using the membrane preparation diluted with binding buffer to a concentration of 1 μg/50 μl.
Briefly, the COS7 cells, described above, that had been transfected with DNA encoding the ETB receptor and express the human ETB receptor on their surfaces were grown to confluence in T-1 75 flasks. Cells from multiple flasks were collected by scraping, pooled and centrifuged for 10 min at 190×g. The cells were resuspended in phosphate buffered saline (PBS) containing 10 mM EDTA using a Tenbroeck homogenizer. The suspension was centrifuged at 4° C. 57,800 X g for 15 min, the pellet was resuspended in 5 ml of buffer A (5mM HEPES buffer, pH 7.4 containing aprotinin (100 KIU/ml)) and then frozen and thawed once. Five ml of Buffer B (5 mM HEPES Buffer, pH 7.4 containing 10 mM MnCl2 and 0.001% deoxyribonuclease Type 1) was added, the suspension mixed by inversion and then incubated at 37° C. for 30 minutes. The mixture was centrifuged at 57,800×g as described above, the pellet washed twice with buffer A and then resuspended in buffer C (30 mM HEPES buffer, pH 7.4 containing aprotinin (100 KIU/ml) to give a final protein concentration of 2 mg/ml.
The binding assay was performed as described above using the membrane preparation diluted to give 1 μg/50 μl of binding buffer.

Where [1] appears, read: Table 2, † incubation at 24° C.
Setting [2] is: Table 1, † incubation at 24° C.

`Cc1noc(NS(=O)(=O)c2ccsc2C(=O)NCc2ccccc2)c1Br` [N-(4-Bromo-3-methyl-5-isoxazolyl)-2-(N-benzylaminocarbonyl)thiophene-3-sulfonamide]: the IC50 worked out at 13 nM at human ETA receptors (Table 1, incubation at 4° C.) and 12700 nM on human ETB receptor (Table 1, incubation at 4° C.).
For `Cc1noc(NS(=O)(=O)c2ccsc2C(=O)O)c1Br` [N-(4-Bromo-3-methyl-5-isoxazolyl)-2-(carboxyl)thiophene-3-sulfonamide], the IC50 was roughly 600 nM at human ETA receptors (Table 1, incubation at 4° C.) and roughly 67000 nM on human ETB receptor (Table 1, incubation at 4° C.).
For `COc1ccccc1NC(=O)c1sccc1S(=O)(=O)Nc1onc(C)c1Br` [N-(4-Bromo-3-methyl-5-isoxazolyl)-2-[N-(2-methoxyphenyl)aminocarbonyl]thiophene-3-sulfonamide], the IC50 at human ETA receptors (Table 1, incubation at 4° C.) worked out at 11.6 nM; at human ETB receptor (Table 1, incubation at 4° C.), 13200 nM.
The corresponding values for `COc1cccc(NC(=O)c2sccc2S(=O)(=O)Nc2onc(C)c2Br)c1` [N-(4-Bromo-3-methyl-5-isoxazolyl)-2-[N-(3-methoxyphenyl)aminocarbonyl]thiophene-3-sulfonamide] are 3 nM and 5860 nM.
As for `Cc1noc(NS(=O)(=O)c2ccsc2C(=O)Nc2ccc(-c3ccccc3)cc2)c1Br` [N-(4-Bromo-3-methyl-5-isoxazolyl)-2-[N-(4-biphenyl)aminocarbonyl]thiophene-3-sulfonamide], the IC50 at human ETA receptors (Table 1, incubation at 4° C.) came to 37.6 nM; on human ETB receptor (Table 1, incubation at 4° C.) it was 912 nM.
With `CCc1ccc(NC(=O)c2sccc2S(=O)(=O)Nc2onc(C)c2Br)cc1` [N-(4-Bromo-3-methyl-5-isoxazolyl)-2-[N-(4-ethylphenyl)aminocarbonyl]thiophene-3-sulfonamide], the IC50 at human ETA receptors (Table 1, incubation at 4° C.) is 1.6 nM; at human ETB receptor (Table 1, incubation at 4° C.), 849 nM.
In the case of `COc1ccc(NC(=O)c2sccc2S(=O)(=O)Nc2onc(C)c2Br)cc1` [N-(4-Bromo-3-methyl-5-isoxazolyl)-2-[N-(4-methoxyphenyl)aminocarbonyl]thiophene-3-sulfonamide], the IC50 on human ETA receptors (Table 1, incubation at 4° C.) was 2 nM; at human ETB receptor (Table 1, incubation at 4° C.) it was 2120 nM.
On to `Cc1noc(NS(=O)(=O)c2cc(Br)c(Br)s2)c1Br` [N-(4-Bromo-3-methyl-5-isoxazolyl)-4,5-dibromothiophene-2-sulfonamide], for which the IC50 at human ETA receptors (Table 1, incubation at 4° C.) was determined as 281 nM; at human ETB receptor (Table 1, incubation at 4° C.), 2580 nM.
With `Cc1noc(NS(=O)(=O)c2cc(Cl)c(Cl)s2)c1Br` [N-(4-Bromo-3-methyl-5-isoxazolyl)-4,5-dichlorothiophene-2-sulfonamide], the IC50 is roughly 450 nM on human ETA receptors (Table 1, incubation at 4° C.) and roughly 4900 nM on human ETB receptor (Table 1, incubation at 4° C.).
As for `Cc1noc(NS(=O)(=O)c2c(Cl)sc(Cl)c2Br)c1Br` [N-(4-Bromo-3-methyl-5-isoxazolyl)-4-bromo-2,5-dichlorothiophene-3-sulfonamide], the IC50 at human ETA receptors (Table 1, incubation at 4° C.) was roughly 280 nM; on human ETB receptor (Table 1, incubation at 4° C.), 10400 nM.
In the same order, the values of `Cc1noc(NS(=O)(=O)c2ccc(-c3ccccn3)s2)c1Br` [N-(4-Bromo-3-methyl-5-isoxazolyl)-5-(2-pyridyl)thiophene-2-sulfonamide] are 3840 nM and 2700 nM.
The corresponding values for `Cc1noc(NS(=O)(=O)c2ccc(CNC(=O)c3ccc(Cl)cc3)s2)c1Br` [N-(4-Bromo-3-methyl-5-isoxazolyl)-5-(4-chlorobenzamidomethyl)thiophene-2-sulfonamide] are 311 nM and 2570 nM.
In the case of `Cc1noc(NS(=O)(=O)c2ccc(S(=O)(=O)c3ccccc3)s2)c1Br` [N-(4-Bromo-3-methyl-5-isoxazolyl)-5-benzenesulfonylthiophene-2-sulfonamide], the IC50 at human ETA receptors (Table 1, incubation at 4° C.) is 570 nM; on human ETB receptor (Table 1, incubation at 4° C.), 333 nM.
As for `Cc1noc(NS(=O)(=O)c2sc3ccc(Cl)cc3c2C)c1Br` [N-(4-Bromo-3-methyl-5-isoxazolyl)-5-chloro-3-methylbenzo[b]thiophene-2-sulfonamide], the IC50 on human ETA receptors (Table 1, incubation at 4° C.) is 960 nM; at human ETB receptor (Table 1, incubation at 4° C.) it was 1630 nM.
As for `Cc1noc(NS(=O)(=O)c2ccc(-c3cc(C(F)(F)F)n(C)n3)s2)c1Br` [N-(4-Bromo-3-methyl-5-isoxazolyl)-5-{3-[1-methyl-5-(trifluoromethyl)pyrazolyl]}thiophene-2-sulfonamide], the IC50 on human ETA receptors (Table 1, incubation at 4° C.) was roughly 6700 nM; on human ETB receptor (Table 1, incubation at 4° C.), roughly 360 nM.
For the compound `Cc1c(C(F)(F)F)noc1NS(=O)(=O)c1ccc(-c2ccccc2)cc1` [N-(4-Methyl-3-trifluoromethyl-5-isoxazolyl)-4-biphenylsulfonamide], the IC50 on human ETA receptors (Table 2, incubation at 4° C.) turned out to be 19000 nM; at human ETB receptor (Table 2, incubation at 4° C.) it was 1700 nM; at human ETB receptor (setting [1]), 5620 nM.
Turning to `CCCCCCCCCCCCCc1c(C(F)(F)F)noc1NS(=O)(=O)c1ccc(-c2ccccc2)cc1` [N-(4-Tridecyl-3-trifluoromethyl-5-isoxazolyl)-4-biphenylsulfonamide], the IC50 at human ETA receptors (Table 2, incubation at 4° C.) came to 34000 ± 9000 nM; on human ETA receptors (setting [1]) it was 33000 nM; on human ETB receptor (Table 2, incubation at 4° C.), 990 ± 200 nM; at human ETB receptor (setting [1]) it was 950 nM.
As for `Cc1noc(NS(=O)(=O)c2cccs2)c1Br` [N-(4-bromo-3-methyl-5-isoxazolyl)2-thiophenesulfonamide], the IC50 at human ETA receptors (Table 1, incubation at 4° C.) came out at 95 ± 70 nM; at human ETB receptor (Table 1, incubation at 4° C.) it was 27700 ± 15000 nM.
As to `Cc1noc(NS(=O)(=O)c2cc3ccccc3n2C)c1Br` [N-(4-bromo-3-methyl-5-isoxazolyl)-1-methylindole-2-sulfonamide], the IC50 is 77000 nM at human ETA receptors (setting [2]) and roughly 100000 nM on human ETB receptor (setting [2]).
Turning to `Cc1noc(NS(=O)(=O)c2c(C)sc(C)c2-c2ccccc2)c1Br` [N-(4-bromo-3-methyl-5-isoxazolyl)-2,5-dimethyl-4-phenylthiophene-3-sulfonamide], the IC50 at human ETA receptors (Table 1, incubation at 4° C.) was 1400 nM; on human ETB receptor (Table 1, incubation at 4° C.), roughly 100000 nM.
